Data on ten compounds can be found in ChEMBL document CHEMBL1201862, “PubChem BioAssay data set” (2004).

Some test systems named below: CAKI-1; EKVX; SNB-19; HOP-62; LOX IMVI; OVCAR-4; RXF 393; MCF7; SF-295; M14; BT-549; UO-31; MDA-MB-231; NCI-H522; UACC-62; OVCAR-5; T47D; SK-OV-3; K562; U-251.
Common to all, as to test: NCI anticancer screen, dose series, 48 h

Structures are written as SMILES.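 Five concentrations, 48 hours, 96-well plates. Here, GI50 denotes the concentration required for 50% inhibition of growth.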 Calls of active or inactive are those of the source. No stated cut-off is given here; in the data, active = GI50 up to about 1.1 µM and inactive = higher. Some results are limits rather than exact numbers.

Turning to `O=C(CSc1nc2nncc-2c(O)[nH]1)c1ccc(Cl)cc1`, the GI50 is > 100 µM (inactive) in the assay on CAKI-1; 66.5 µM (inactive) in the assay with EKVX; > 100 µM (inactive) in the assay with SNB-19; > 100 µM (inactive) in the assay on HOP-62; > 100 µM (inactive) with LOX IMVI; > 100 µM (inactive) in the assay with OVCAR-4. Moreover, the GI50 in the assay on RXF 393, in the assay on MCF7, in the assay on SF-295, with M14, with BT-549 and in the assay on UO-31 was > 100 µM (inactive) in each case. For the same compound, the GI50 in the assay with MDA-MB-231, in the assay on NCI-H522, in the assay on UACC-62, in the assay with OVCAR-5, in the assay on T47D and in the assay with SK-OV-3 was > 100 µM (inactive) in each case. Moreover, the GI50 in the assay with K562 and with U-251 was > 100 µM (inactive) in each case.

For `O=C1/C(=C/c2ccc(O)cc2)CCc2ccc([N+](=O)[O-])cc21`, the GI50 with CAKI-1 is > 82.6 µM (inactive); with EKVX it was > 89.5 µM (inactive); in the assay with SNB-19, 39.1 µM (inactive); with HOP-62 it was 73.5 µM (inactive); with LOX IMVI, > 100 µM (inactive); in the assay on OVCAR-4 it was > 90.6 µM (inactive). Also, the GI50 with RXF 393 is 33.3 µM (inactive); with MCF7, > 33.3 µM (inactive); in the assay on SF-295, 63.1 µM (inactive); in the assay with M14 it was > 100 µM (inactive); in the assay with BT-549, 31.3 µM (inactive); with UO-31, 23 µM (inactive). Moreover, the GI50 in the assay with MDA-MB-231 was > 100 µM (inactive); in the assay on NCI-H522 it was 2.65 µM (inactive); in the assay on UACC-62, > 74.3 µM (inactive); in the assay with OVCAR-5 it was > 51.5 µM (inactive); in the assay on T47D, 68.7 µM (inactive); with SK-OV-3, > 84.7 µM (inactive). For the same compound, the GI50 is > 100 µM (inactive) in the assay with K562 and 60.4 µM (inactive) in the assay with U-251.

With `C=C1C(=O)OC2/C=C(\COC(C)=O)CCC(OC(C)=O)C3=CC(OC3=O)C12` (stereo not given), the GI50 with CAKI-1 was 3.03 µM (inactive); in the assay on EKVX, 11.7 µM (inactive); in the assay on SNB-19 it was 18 µM (inactive); in the assay on HOP-62, 19.8 µM (inactive); in the assay with LOX IMVI, 5.45 µM (inactive); in the assay with OVCAR-4, 23.3 µM (inactive). Moreover, the GI50 in the assay with RXF 393 was 1.59 µM (inactive); in the assay with MCF7, 3.69 µM (inactive); in the assay on SF-295, 18 µM (inactive); in the assay with M14 it was 2.91 µM (inactive); with BT-549, 5.38 µM (inactive); with UO-31, 17.3 µM (inactive). Besides, the GI50 is 19.1 µM (inactive) in the assay on MDA-MB-231; 0.526 µM (active) with NCI-H522; 4.26 µM (inactive) in the assay with UACC-62; 17.7 µM (inactive) in the assay on OVCAR-5; 16.9 µM (inactive) in the assay on T47D; 14.6 µM (inactive) with SK-OV-3. For the same compound, the results for the GI50 with K562 and with U-251 were 2.3 µM (inactive) and 12.2 µM (inactive), respectively.

For the compound `Cc1ccccc1NC(=O)CC(=O)NNC(Sc1ccccc1)c1cc(/N=N/c2ccc(Br)cc2)ccc1O` (stereo not given), the GI50 in the assay on CAKI-1 was 2.53 µM (inactive); with EKVX it was 5.02 µM (inactive); in the assay on SNB-19 it was 9.48 µM (inactive); in the assay on HOP-62 it was 2.17 µM (inactive); in the assay with LOX IMVI it was 1.49 µM (inactive); in the assay on OVCAR-4, 2.09 µM (inactive). Also, the GI50 in the assay on RXF 393 is 2.13 µM (inactive); in the assay on MCF7 it was 0.798 µM (active); in the assay with SF-295, 2.75 µM (inactive); with M14 it was 0.723 µM (active); in the assay on BT-549, 3.72 µM (inactive); in the assay on UO-31, 2.68 µM (inactive). The GI50 in the assay with MDA-MB-231 is 1.14 µM (inactive); with NCI-H522, 6.01 µM (inactive); in the assay on UACC-62, 1 µM (active); with OVCAR-5 it was 7.59 µM (inactive); in the assay with T47D, 3.93 µM (inactive); in the assay on SK-OV-3, 5.26 µM (inactive). Moreover, the results for the GI50 in the assay on K562 and in the assay with U-251 were 2.73 µM (inactive) and 2.64 µM (inactive), respectively.

For `CCCCCCOc1ccc(NC2=C(Cl)C(=O)c3c(O)ccc(O)c3C2=O)cc1`, the GI50 is 5.28 µM (inactive) with CAKI-1; > 10 µM (inactive) with EKVX; 3.15 µM (inactive) with SNB-19; 1.77 µM (inactive) with HOP-62; 1.67 µM (inactive) with LOX IMVI; 4.14 µM (inactive) in the assay on OVCAR-4. The GI50 is 2.32 µM (inactive) in the assay on RXF 393; 0.414 µM (active) with MCF7; 5.81 µM (inactive) in the assay with SF-295; 2.01 µM (inactive) in the assay on M14; 3.25 µM (inactive) with BT-549; 2.2 µM (inactive) with UO-31. Also, the GI50 in the assay on MDA-MB-231 was 1.86 µM (inactive); with NCI-H522, 2.15 µM (inactive); in the assay with UACC-62, 2.58 µM (inactive); in the assay with OVCAR-5, > 10 µM (inactive); in the assay with T47D it was 2.03 µM (inactive); in the assay with SK-OV-3 it was > 10 µM (inactive). Moreover, the GI50 in the assay with K562 was 3.1 µM (inactive); in the assay on U-251, 2.32 µM (inactive).

As to `O=C1c2c(Br)sc(Br)c2[C@@H](O)[C@H]1O`, the GI50 in the assay with CAKI-1 was 18.4 µM (inactive); in the assay on EKVX, 16.7 µM (inactive); in the assay on SNB-19 it was 19.5 µM (inactive); in the assay on HOP-62 it was 16.9 µM (inactive); with LOX IMVI, 7.13 µM (inactive); in the assay on OVCAR-4, 14.1 µM (inactive). The GI50 with RXF 393 was 16.2 µM (inactive); in the assay on MCF7, 17.1 µM (inactive); with SF-295 it was 18.1 µM (inactive); in the assay with M14 it was 13.1 µM (inactive); in the assay on BT-549 it was 17.9 µM (inactive); with UO-31 it was 17.1 µM (inactive). Also, the GI50 in the assay on MDA-MB-231 is 16.6 µM (inactive); in the assay on NCI-H522, 1.82 µM (inactive); in the assay on UACC-62, 16.7 µM (inactive); with OVCAR-5, 19.9 µM (inactive); with T47D, 19.4 µM (inactive); in the assay with SK-OV-3 it was 15.6 µM (inactive). Also, the GI50 with K562 was 2.91 µM (inactive); in the assay on U-251, 7.48 µM (inactive).

In the case of `NC12CC3C4CC5(N)CC3C(C1)C(C5)C4C2`, the GI50 in the assay with CAKI-1, in the assay on EKVX, in the assay with SNB-19, with HOP-62, with LOX IMVI and with OVCAR-4 was > 100 µM (inactive) each time. Also, the GI50 in the assay on RXF 393, with MCF7, with SF-295, in the assay with M14, in the assay with BT-549 and with UO-31 was > 100 µM (inactive) each time. The GI50 in the assay on MDA-MB-231, with NCI-H522, with UACC-62, with OVCAR-5, in the assay with T47D and in the assay with SK-OV-3 was > 100 µM (inactive) each time. The GI50 with K562 and in the assay on U-251 was > 100 µM (inactive) each time.

For `COc1cc(S(=O)(=O)Nc2nc(-c3ccc(N)cc3)cs2)ccc1Cl`, the GI50 in the assay with CAKI-1 was 73.5 µM (inactive); with EKVX it was 42.7 µM (inactive); in the assay with SNB-19 it was 91.4 µM (inactive); in the assay on HOP-62, > 100 µM (inactive); with LOX IMVI, 91.8 µM (inactive); with OVCAR-4 it was 34 µM (inactive). The GI50 was 38.1 µM (inactive) with RXF 393; 36.8 µM (inactive) in the assay with MCF7; 43.4 µM (inactive) with SF-295; 59.8 µM (inactive) in the assay with M14; 51.9 µM (inactive) in the assay on BT-549; 85.7 µM (inactive) with UO-31. Also, the GI50 was > 100 µM (inactive) in the assay with MDA-MB-231; 56 µM (inactive) with NCI-H522; 28.4 µM (inactive) in the assay on UACC-62; > 100 µM (inactive) in the assay with OVCAR-5; 38.5 µM (inactive) in the assay with T47D; 97.9 µM (inactive) in the assay with SK-OV-3. The figures for the GI50 in the assay with K562 and in the assay on U-251 were 58.2 µM (inactive) and 63 µM (inactive), respectively.

Regarding `CC(C)(O)CCC(O)C(C)(O)C1CCC2(O)C3=CC(=O)C4(O)CC(O)C(O)CC4(C)C3CCC12C.CC(C)(O)CCC(O)C(C)(O)C1CCC2(O)C3=CC(=O)C4CC(O)C(O)CC4(C)C3CCC12C` (stereo not given), the GI50 in the assay with CAKI-1, in the assay on EKVX, in the assay with SNB-19, in the assay with HOP-62, with LOX IMVI and in the assay on OVCAR-4 was > 100 µM (inactive) throughout. Besides, the GI50 with RXF 393 is > 100 µM (inactive); in the assay with MCF7 it was 86.7 µM (inactive); with SF-295, > 100 µM (inactive); in the assay with M14, > 100 µM (inactive); in the assay on BT-549, > 100 µM (inactive); in the assay on UO-31, > 100 µM (inactive). The GI50 with MDA-MB-231, in the assay with NCI-H522, in the assay with UACC-62, in the assay on OVCAR-5, in the assay with T47D and in the assay on SK-OV-3 was > 100 µM (inactive) throughout. In addition, the GI50 in the assay on K562 and in the assay with U-251 was > 100 µM (inactive) throughout.

On to `COc1cc(/C=C(\C#N)C(N)=C(C#N)C#N)cc(O)c1O`, for which the GI50 is > 100 µM (inactive) with CAKI-1; > 89.7 µM (inactive) in the assay on EKVX; > 87.5 µM (inactive) in the assay on SNB-19; > 71.6 µM (inactive) with HOP-62; > 61.4 µM (inactive) with LOX IMVI; > 100 µM (inactive) with OVCAR-4. For the same compound, the GI50 is > 100 µM (inactive) in the assay with RXF 393; 95.3 µM (inactive) in the assay with MCF7; > 77.1 µM (inactive) with SF-295; > 100 µM (inactive) with M14; > 100 µM (inactive) in the assay on BT-549; > 77.8 µM (inactive) in the assay with UO-31. Also, the GI50 with MDA-MB-231 was > 100 µM (inactive); in the assay with NCI-H522, 36 µM (inactive); in the assay with UACC-62, > 93.5 µM (inactive); in the assay on OVCAR-5, > 100 µM (inactive); with T47D, 91.8 µM (inactive); in the assay on SK-OV-3 it was > 100 µM (inactive). The results for the GI50 with K562 and with U-251 were > 79.6 µM (inactive) and > 88.7 µM (inactive), respectively.
